Measurements reported in patent EP1021178B1, “SELENOPHENE ANTI-TUMOR AGENTS” (Purdue Research Foundation, priority 1996, dated 1997).

Tests used:
[1] = in vitro activity of glycoside prodrug (preliminary); settings: preliminary results
[2] = in vivo activity of glycoside prodrug (preliminary); settings: preliminary results

For `OC[C@H]1O[C@@H](OCc2ccc(-c3ccc(-c4cccs4)s3)s2)[C@H](O)[C@@H](O)[C@@H]1O` [β-D-glucoside of 2-hydroxymethyl-∝-terthiophene], the in vitro activities [1] was “retains” and the in vivo activities [2] was “retains”.
